In brackets after ≈: the same amount, converted by molar mass.
Tests used:
Type in all cases: functional
[1] = tested on: P388; assay: Cytotoxicity against mouse P388 cells after 3 days by MTT assay; settings: P388, 72 h, read-out: ED50 (the source's name)
[2] = tested on: A549; assay: Cytotoxicity against human A549 cells after 6 days by MTT assay; settings: A549, 144 h, read-out: ED50 (the source's name)
[3] = tested on: KB; assay: Cytotoxicity against human KB cells after 3 days by MTT assay; settings: 72 h, read-out: ED50 (the source's name)
[4] = tested on: HT-29; assay: Cytotoxicity against human HT-29 cells after 6 days by MTT assay; settings: HT-29, 144 h, read-out: ED50 (the source's name)

| SMILES | EC50 [1] [µg/mL] | EC50 [2] [µg/mL] | EC50 [3] [µg/mL] | EC50 [4] [µg/mL] |
| --- | --- | --- | --- | --- |
| C=C1C(=O)O[C@@H]2[C@H]1[C@@H](OC(C)=O)C/C(C)=C/[C@@H](OC(C)=O)C/C(C)=C/CC[C@@]1(C)O[C@H]21 [LOBOMICHAOLIDE] | 0.34 (≈ 0.786 µM) | 0.38 (≈ 0.879 µM) | 0.59 (≈ 1.36 µM) | 0.37 (≈ 0.855 µM) |
| C=C1C(=O)O[C@@H]2[C@H]1[C@H](OC(C)=O)C/C(C)=C/C[C@H](OC(C)=O)/C(C)=C/C[C@@H](OC(C)=O)[C@]1(C)O[C@@H]21 [CRASSOLIDE] | 0.08 (≈ 0.163 µM) | 0.39 (≈ 0.795 µM) | 0.85 (≈ 1.73 µM) | 0.26 (≈ 0.53 µM) |
